# Assay results: patent US9346761B2, “Arginine methyltransferase inhibitors and uses thereof” (Epizyme, Inc., priority 2013, dated 2016)
# Where two headings read alike, the source gives them in different places.
# Tests used:
# [1] = molecular target: T1, Full-length human PRMT6 (Homo sapiens, UniProt Q96LA8); experiment: PRMT6 biochemical assay (3H-SAM Flashplate, peptide substrate)
# T1 construct: Flag-PRMT6-His was eluted with 200 ug/ml FLAG peptide in the same buffer; made in house; host or cells: HEK 293F cells (BacMam virus, pFastBacMam)
# T1 sequence (Q96LA8 with tags, fused parts or gaps): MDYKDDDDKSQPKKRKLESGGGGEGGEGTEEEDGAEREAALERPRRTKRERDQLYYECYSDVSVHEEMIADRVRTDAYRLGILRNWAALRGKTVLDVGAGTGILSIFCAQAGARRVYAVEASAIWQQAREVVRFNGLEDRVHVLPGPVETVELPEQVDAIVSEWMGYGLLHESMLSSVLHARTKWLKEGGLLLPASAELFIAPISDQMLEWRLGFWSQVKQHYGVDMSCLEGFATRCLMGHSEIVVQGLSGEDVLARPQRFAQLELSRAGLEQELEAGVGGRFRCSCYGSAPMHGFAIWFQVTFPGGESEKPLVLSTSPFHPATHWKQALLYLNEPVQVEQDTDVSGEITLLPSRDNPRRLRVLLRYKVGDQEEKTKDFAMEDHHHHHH
# Outline: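 Flag-PRMT6-His from baculovirus-infected cells, preincubated with compound 30 min at room temperature, then SAM/3H-SAM and biotinylated H4 36-50 peptide added; 20 mM Bicine pH 7.6, TCEP, BSG, Tween 20. Quenched with cold SAM, captured on streptavidin Flashplates; % inhibition from SAH/DMSO controls, 3- or 4-parameter IC50 fit.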
# [2] = tested on: mono-methyl arginine in RKO cells; experiment: RKO methylation assay, In Cell Western for mono-methyl arginine and DNA content; type: cell-based; details: Homo sapiens
# [3] = In Cell Western, RKO cells, 72 hours, percent activation of mono-methyl arginine signal, read-out: EC30
Compound,IC50 [1],"EC30 [2, 3]","EC30 ([2]; RKO, 72 h)"
CNCCN(C)Cc1cn(C2CC2)nc1-c1ccc(F)cc1 [Compound 13],101 to 1000 nM,> 12000 nM,–
CNCCN(C)Cc1cnn(C2CC2)c1-c1ccc(F)cc1 [Compound 14],< 100 nM,3010 to 12000 nM,–
CNCCN(C)Cc1cn(C(C)C)nc1-c1ccc(F)cc1 [Compound 15],101 to 1000 nM,> 12000 nM,–
CNCCN(C)Cc1cnn(C(C)C)c1-c1ccc(F)cc1 [Compound 16],< 100 nM,–,> 12000 nM
CNCCN(C)Cc1cn[nH]c1-c1ccc(C#N)cc1 [Compound 17],< 100 nM,–,> 12000 nM
CNCCN(C)Cc1cn[nH]c1-c1cc(F)cc(F)c1 [Compound 18],< 100 nM,> 12000 nM,–
CCCc1ccc(-c2n[nH]cc2CN(C)CCNC)cc1 [Compound 20],< 100 nM,< 3000 nM,–
CNCCN(C)Cc1c[nH]nc1-c1cccc([N+](=O)[O-])c1 [Compound 21],< 100 nM,> 12000 nM,–
CNCCN(C)Cc1c[nH]nc1-c1cccc(C#N)c1 [Compound 22],< 100 nM,> 12000 nM,–
CNCCN(C)Cc1c[nH]nc1-c1ccccc1OC [Compound 23],101 to 1000 nM,> 12000 nM,–
CNCCN(C)Cc1c[nH]nc1-c1cccc(OC)c1 [Compound 24],< 100 nM,> 12000 nM,–
CNCCN(C)Cc1c[nH]nc1-c1ccc(OC)cc1 [Compound 25],< 100 nM,> 12000 nM,–
CNCCN(C)Cc1c[nH]nc1-c1cccc(O)c1 [Compound 26],< 100 nM,> 12000 nM,–
CNCCN(C)Cc1c[nH]nc1-c1ccc(O)cc1 [Compound 27],< 100 nM,> 12000 nM,–
CNCCN(C)Cc1c[nH]nc1-c1ccc(CO)cc1 [Compound 28],< 100 nM,3010 to 12000 nM,–
CNCCN(C)Cc1c[nH]nc1-c1ccc(C)cc1C [Compound 29],< 100 nM,> 12000 nM,–
CNCCN(C)Cc1cn(CCCC(O)CO)nc1-c1ccc(F)cc1 (centres unmarked) [Compound 30],101 to 1000 nM,> 12000 nM,–
CNCCN(C)Cc1cnn(CCCC(O)CO)c1-c1ccc(F)cc1 (centres unmarked) [Compound 31],101 to 1000 nM,> 12000 nM,–
CNCCN(C)Cc1c[nH]nc1-c1ccc(N)cc1 [Compound 33],< 100 nM,> 12000 nM,–
CNCCN(C)Cc1c[nH]nc1-c1ccc(Oc2ccccc2)cc1 [Compound 37],< 100 nM,< 3000 nM,–
CNCCN(C)Cc1c[nH]nc1-c1ccccc1C(F)(F)F [Compound 38],101 to 1000 nM,> 12000 nM,–

Compound,IC50 [1],"EC30 [2, 3]","EC30 ([2]; RKO, 72 h)"
CNCCN(C)Cc1c[nH]nc1-c1ccccc1OC(F)(F)F [Compound 40],101 to 1000 nM,> 12000 nM,–
CCNC(=O)c1cccc(-c2n[nH]cc2CN(C)CCNC)c1 [Compound 43],< 100 nM,> 12000 nM,–
CNCCN(C)Cc1c[nH]nc1-c1ccc(C(F)(F)F)cc1 [Compound 174],< 100 nM,< 3000 nM,–
CC(C)CC(=O)N1CCN(c2ccc(-c3n[nH]cc3CN(C)CCN)cc2)CC1 [Compound 180],< 100 nM,> 12000 nM,–
CNCCN(C)Cc1c[nH]nc1-c1ccc(Cl)c(F)c1 [Compound 182],< 100 nM,< 3000 nM,–
CN(CCNC1CC1)Cc1c[nH]nc1-c1ccc(C#N)cc1 [Compound 183],101 to 1000 nM,> 12000 nM,–
CN(CCN(C)C1CC1)Cc1c[nH]nc1-c1ccc(C#N)cc1 [Compound 184],1010 to 3000 nM,< 3000 nM,–
CN(CCN1CCC1)Cc1c[nH]nc1-c1ccc(C#N)cc1 [Compound 185],101 to 1000 nM,> 12000 nM,–
CC(C)Oc1cccc(-c2n[nH]cc2CN(C)CCN)c1 [Compound 187],< 100 nM,3010 to 12000 nM,–
CC(C)Oc1cc(-c2n[nH]cc2CN(C)CCN)ccc1F [Compound 188],< 100 nM,> 12000 nM,–
CCC(=O)N1CCN(c2ccc(-c3n[nH]cc3CN(C)CCN)cc2)CC1 [Compound 189],< 100 nM,> 12000 nM,–
CC(C)CN1C(=O)COc2ccc(-c3n[nH]cc3CN(C)CCN)cc21 [Compound 191],101 to 1000 nM,> 12000 nM,–
CN(CCN)Cc1c[nH]nc1-c1ccc2c(c1)OCC(=O)N2C [Compound 192],< 100 nM,> 12000 nM,–
CC(C)CN1C(=O)COc2cc(-c3n[nH]cc3CN(C)CCN)ccc21 [Compound 193],101 to 1000 nM,3010 to 12000 nM,–
CN(CCN)Cc1c[nH]nc1-c1ccc(OCCO)cc1 [Compound 194],< 100 nM,> 12000 nM,–
CN(CCN)Cc1c[nH]nc1-c1ccc(OCCCO)cc1 [Compound 195],< 100 nM,3010 to 12000 nM,–
CN(CCN)Cc1c[nH]nc1-c1ccc2c(c1)N(C)C(=O)CO2 [Compound 196],< 100 nM,> 12000 nM,–
CCNC(=O)c1cccc(-c2n[nH]cc2CN(C)CCN)c1 [Compound 197],< 100 nM,> 12000 nM,–
CCN(C)C(=O)c1cccc(-c2n[nH]cc2CN(C)CCN)c1 [Compound 198],101 to 1000 nM,> 12000 nM,–
"Cc1cc(-c2n[nH]cc2CN(C)CCN)cc(C)c1OC(C)C [Compound 199, N^1-((3-(4-isopropoxy-3,5-dimethylphenyl)-1H-pyrazol-4-yl)methyl)-N^1-methylethane-1,2-diamine]",101 to 1000 nM,< 3000 nM,–
CN(CCN)Cc1c[nH]nc1-c1ccc(Oc2ccccc2)c(C#N)c1 [Compound 202],< 100 nM,< 3000 nM,–

Compound,IC50 [1],"EC30 [2, 3]","EC30 ([2]; RKO, 72 h)"
CN(CCN)Cc1n[nH]cc1-c1ccc(Oc2ccccc2)cc1 [Compound 203],< 100 nM,< 3000 nM,–
CNCCN(C)Cc1n[nH]cc1-c1ccc(Oc2ccccc2)cc1 [Compound 204],< 100 nM,< 3000 nM,–
CN(CCN)Cc1c[nH]nc1-c1ccc(Oc2cccc(F)c2)cc1 [Compound 205],< 100 nM,< 3000 nM,–
CNCCN(C)Cc1cn(C)nc1-c1ccc(OC(C)C)c(Cl)c1 [Compound 206],< 100 nM,–,< 3000 nM
CNCCN(C)Cc1cn(C)nc1-c1ccc(Oc2ccccc2)cc1 [Compound 207],< 100 nM,< 3000 nM,–
CNCCN(C)Cc1cnn(C)c1-c1ccc(Oc2ccccc2)cc1 [Compound 208],< 100 nM,< 3000 nM,–
CNCCN(C)Cc1c[nH]nc1-c1ccc(OCCCOC)cc1 [Compound 209],< 100 nM,< 3000 nM,–
CNCCN(C)Cc1n[nH]cc1-c1ccc(OC(C)C)c(F)c1 [Compound 210],< 100 nM,< 3000 nM,–
CC(C)Oc1ccc(-c2c[nH]nc2CN(C)CCN)cc1Cl [Compound 211],< 100 nM,< 3000 nM,–
CNCCN(C)Cc1n[nH]cc1-c1ccc(OC(C)C)c(Cl)c1 [Compound 212],< 100 nM,< 3000 nM,–
CCn1cc(CN(C)CCNC)c(-c2ccc(OC(C)C)cc2)n1 [Compound 213],< 100 nM,> 12000 nM,–
CNCCN(C)Cc1cn(C2CCCC2)nc1-c1ccc(OC(C)C)cc1 [Compound 214],101 to 1000 nM,> 12000 nM,–
CNCCN(C)Cc1cn(C2CCOC2)nc1-c1ccc(OC(C)C)cc1 (centres unmarked) [Compound 215],101 to 1000 nM,> 12000 nM,–
CNCCN(C)Cc1cnn(C2CCOC2)c1-c1ccc(OC(C)C)cc1 (centres unmarked) [Compound 216],< 100 nM,> 12000 nM,–
CNCCN(C)Cc1cn(Cc2ccccc2)nc1-c1ccc(OC(C)C)cc1 [Compound 217],< 100 nM,> 12000 nM,–
C=CCn1cc(CN(C)CCNC)c(-c2ccc(OC(C)C)cc2)n1 [Compound 218],101 to 1000 nM,> 12000 nM,–
C=CCn1ncc(CN(C)CCNC)c1-c1ccc(OC(C)C)cc1 [Compound 219],< 100 nM,> 12000 nM,–
CNCCN(C)Cc1c[nH]nc1-c1ccc(Oc2ccccc2)c(C#N)c1 [Compound 221],< 100 nM,< 3000 nM,–
CN(CCN)Cc1c(-c2ccc(C#N)cc2)ncn1C [Compound 222],1010 to 3000 nM,> 12000 nM,–
